Laboratory results from patent US20240368125A1, “NOVEL PYRAZINYL-TRIAZOLE COMPOUNDS AS PESTICIDES” (Bayer Aktiengesellschaft, priority 2021, published 2024).

Key:
Type in all cases: in vivo
[1] = tested on: Rhipicephalus (Boophilus) microplus larvae (strain Parkhurst, resistant against synthetic pyrethroids); experiment: Rhipicephalus (Boophilus) microplus in-vitro contact test, larval cattle tick; settings: Rhipicephalus microplus; 1 μg/cm^2 (=100 g/ha), after 48 hours; read-out: efficacy (larvae dead or moribund)
Experimental: Rhipicephalus (Boophilus) Microplus—In-Vitro Contact Tests Larval Cattle Tick (Strain Parkhurst, Resistant Against Synthetic Pyrethroids
(§1) 9 mg compound is solved in 1 mL acetone and diluted with acetone to the desired concentration. 250 μL of the test solution is filled in 25 mL glass test tubes and homogeneously distributed on the inner walls by rotation and tilting on a shaking device (2 h at 30 rpm). With a compound concentration of 900 ppm, an inner surface of 44.7 cm^2 and a homogeneous distribution, a dose of 5 μg/cm^2 is achieved.
After the solvent has evaporated, each test tube is filled with 20-50 cattle tick larvae (Rhipicephalus microplus), closed with a perforated lid and incubated in a horizontal position at 85% relative humidity and 27° C. in an incubator. After 48 hours efficacy is determined. The larvae are patted on the ground of the tubes and negative geotactic behavior is recorded.

[2] = tested on: adult engorged female ticks (Rhipicephalus microplus); experiment: Rhipicephalus (Boophilus) microplus injection test; settings: 4 μg/tick, after 7 days
Experimental: Rhipicephalus (Boophilus) Microplus—Injection Test
(§2) Solvent: Dimethyl Sulfoxide
To produce a suitable preparation of active compound, 10 mg of active compound are dissolved in 0.5 mL solvent, and the concentrate is diluted with solvent to the desired concentration.
Five adult engorged female ticks (Rhipicephalus microplus) are injected with 1 μL compound solution into the abdomen. The ticks are transferred into replica plates and incubated in a climate chamber.
After 7 days egg deposition of fertile eggs is monitored. Eggs where fertility is not visible are stored in a climate chamber till hatching after about 42 days. An efficacy of 100% means all eggs are infertile; 0% means all eggs are fertile.

[3] = tested on: adult cat fleas (Ctenocephalides felis); experiment: Ctenocephalides felis in-vitro contact test, adult cat flea; settings: Ctenocephalides felis; 1 μg/cm^2 (=100 g/ha), after 48 hours; read-out: efficacy (fleas dead or moribund)
Experimental: Ctenocephalides Felis—In-Vitro Contact Tests Adult Cat Flea
as §1
(§3) After the solvent has evaporated, each test tube is filled with 5-10 adult cat fleas (Ctenocephalides felis), closed with a perforated lid and incubated in a lying position at room temperature and relative humidity. After 48 hours efficacy is determined. The fleas are patted on the ground of the tubes and are incubated on a heating plate at 45-50° C. for at most 5 minutes. Immotile or uncoordinated moving fleas, which are not able to escape the heat by climbing upwards, are marked as dead or moribund.
An efficacy of 100% means all fleas are dead or moribund; 0% means no fleas are dead or moribund.

[4] = tested on: adult unfed cat fleas (Ctenocephalides felis); experiment: Ctenocephalides felis oral test; settings: 48 h, 100 ppm in citrated cattle blood, after 2 days
Experimental: Ctenocephalides felis—Oral Test
as §2
To produce a suitable preparation of active compound, 10 mg of active compound are dissolved in 0.5 mL solvent, and the concentrate is diluted with citrated cattle blood to the desired concentration.
Approximately 20 adult unfed cat fleas (Ctenocephalides felis) are placed in a flea chamber whose top and bottom is covered with gauze. A chamber whose bottom is sealed with parafilm, is filled with the blood-compound solution and placed on top of the flea chamber, so that the fleas can suck the blood. The blood chamber is heated to 37° C. whereas the flea chamber is kept at room temperature.
After 2 days mortality in % is determined. 100% means all the fleas have been killed; 0% means none of the fleas have been killed.

[5] = tested on: adult brown dog ticks (Rhipicephalus sanguineus); experiment: Rhipicephalus sanguineus in-vitro contact test, adult brown dog ticks; settings: Rhipicephalus sanguineus; 1 μg/cm^2 (=100 g/ha), after 48 hours; read-out: efficacy (ticks dead or moribund)
Experimental: Rhipicephalus sanguineus—In-Vitro Contact Tests with Adult Brown Dog Ticks
as §1
as §3, with “brown dog ticks (Rhipicephalus sanguineus),” for “cat fleas (Ctenocephalides felis),”, “ticks” for “fleas”, “ticks,” for “fleas,”
An efficacy of 100% means all ticks are dead or moribund; 0% means no ticks are dead or moribund.

[6] = tested on: green peach aphid (Myzus persicae); experiment: Myzus persicae spray test (MYZUPE); settings: in Brassica rapa, foliar, 120 h
Experimental: Myzus persicae—Spray Test
(§4) Solvent: 78.0 parts by weight acetone • 1.5 parts by weight dimethylformamide
(§5) Emulsifier: alkylarylpolyglycol ether
(§6) To produce a suitable preparation of active compound, 1 part by weight of active compound is mixed with the stated amount of solvents and is diluted with water, containing an emulsifier concentration of 1000 ppm, to the desired concentration. Further test concentrations are prepared by dilution with emulsifier containing water.
Chinese cabbage (Brassica pekinensis) leaf disks infected with all instars of the green peach aphid (Myzus persicae), are sprayed with a preparation of the active ingredient of the desired concentration.
After 5 days mortality in % is determined. 100% means all aphids have been killed and 0% means none of the aphids have been killed.
Myzus persicae—Spray Test (MYZUPE
After the specified period of time, mortality in % is determined. 100% means all aphids have been killed and 0% means none of the aphids have been killed.

[7] = tested on: larvae of the southern green stink bug (Nezara viridula); experiment: Nezara viridula spray test; settings: Nezara viridula, in Hordeum vulgare, 96 h
Experimental: Nezara viridula—Spray Test
(§7) Solvent: 78.0 parts by weight of acetone • • 1.5 parts by weight of dimethylformamide
as §5
as §6, with “solvent,” for “solvents”, “and the concentrate” for “and”
Barley plants (Hordeum vulgare) are sprayed with a test solution containing the desired concentration of the active ingredient and are infested with larvae of the southern green stink bug (Nezara viridula).
After 4 days mortality in % is determined. 100% means all the stink bugs have been killed; 0% means none of the stink bugs have been killed.

[8] = tested on: brown planthopper (Nilaparvata lugens); experiment: Nilaparvata lugens spray test; settings: Nilaparvata lugens, in Oryza sativa, 96 h
Experimental: Nilaparvata lugens—Spray Test
as §7, §5, §6
Rice plants (Oryza sativa) are sprayed with a preparation of the active ingredient of the desired concentration and the plants are infested with the brown planthopper (Nilaparvata lugens).
After 4 days mortality in % is determined. 100% means all planthoppers have been killed and 0% means none of the planthoppers have been killed.

[9] = tested on: fall armyworm larvae (Spodoptera frugiperda); experiment: Spodoptera frugiperda spray test (SPODFR); settings: in Zea mays, 168 h
Experimental: Spodoptera frugiperda—Spray Test
as §4, §5, §6
Maize (Zea mays) leaf sections are sprayed with a preparation of the active ingredient of the desired concentration. Once dry, the leaf sections are infested with fall armyworm larvae (Spodoptera frugiperda).
After 7 days mortality in % is determined. 100% means all caterpillars have been killed and 0% means none of the caterpillars have been killed.
Spodoptera frugiperda—Spray Test (SPODFR
After the specified period of time, mortality in % is determined. 100% means all caterpillars have been killed and 0% means none of the caterpillars have been killed.

[10] = tested on: larvae of the banded cucumber beetle (Diabrotica balteata); experiment: Diabrotica balteata spray test; settings: Diabrotica balteata, 168 h; 100 g/ha (=32 μg/well), wheat seeds, after 7 days; read-out: efficacy (seedlings grown)
Experimental: Diabrotica balteata—Spray Test
as §7, §5
as §6, with “solvent,” for “solvents”, “and the concentrate” for “and”
Soaked wheat seeds (Triticum aestivum) are placed in a multiple well plate filled with agar and some water and are incubated for 1 day to germinate (5 seeds per well). The germinated wheat seeds are sprayed with a test solution containing the desired concentration of the active ingredient. Afterwards each unit is infected with 10-20 larvae of the banded cucumber beetle (Diabrotica balteata).
After 7 days efficacy in % is determined. 100% means all the seedlings have grown up like in the untreated, uninfected control; 0% means none of the seedlings have grown.

[11] = tested on: adult mosquitoes Aedes aegypti strain MONHEIM; experiment: Aedes aegypti test (AEDSAE surface treatment & contact assay); settings: surface concentration 4 mg/m^2, 30 min exposure, 24 hours after contact, read-out: efficacy (mortality)
Experimental: Aedes aegypti Test (AEDSAE Surface Treatment & Contact Assay
(§8) Solvent: Aceton+2000 ppm rapeseed oil methyl ester (RME)
In order to produce a sufficient, active ingredient containing solution it is necessary to solve the test compound in the solvent-mix (acetone at 2 mg/ml/RME 2000 ppm). This solution is pipetted onto a glazed tile and after evaporation of the acetone, adult mosquitoes of the species Aedes aegypti strain MONHEIM are placed onto the dried surface. The exposure time is 30 minutes. Mortality in percent (%) is determined 24 hours after contact of the insects to the treated surface. 100% mortality means that all tested insects are dead, whereas 0% means that no insect died.

[12] = tested on: adult Blattella germanica strain PAULINIA; experiment: Blattella germanica test (BLTTGE surface treatment & contact assay); settings: surface concentration 20 mg/m^2, 30 min exposure, 24 hours after contact, read-out: efficacy (mortality)
Experimental: Blattella germanica Test (BLTTGE Surface Treatment & Contact Assay
as §8
In order to produce a sufficient, active ingredient containing solution it is necessary to solve the test compound in the solvent-mix (acetone at 2 mg/ml/RME 2000 ppm). This solution is pipetted onto a glazed tile and after evaporation of the acetone, adult animals of the species Blattella germanica strain PAULINIA are placed onto the dried surface. The exposure time is 30 minutes.
Mortality in percent (%) is determined 24 hours after contact of the insects to the treated surface. 100% mortality means that all tested insects are dead, whereas 0% means that no insect died.

| Compound | pest or weed control at 1 µg/cm2 [1] [%] | efficacy (infertile eggs) [2] [%] | pest or weed control at 1 µg/cm2 [3] [%] | mortality at 100 ppm [4] [%] | pest or weed control at 1 µg/cm2, 100 g/ha [5] [%] | mortality at 100 g/ha [6] [%] | mortality at 500 g/ha [7] [%] | mortality at 500 g/ha [8] [%] | mortality at 100 g/ha [9] [%] | pest or weed control at 32 µg/disc, 100 g/ha [10] [%] | mortality at 4 mg/m2 [11] [%] | mortality at 20 mg/m2 [12] [%] |
| --- | --- | --- | --- | --- | --- | --- | --- | --- | --- | --- | --- | --- |
| Cc1nc([C@H](C)NC(=O)c2cc(C(F)(F)F)cc(C(F)(F)F)c2)n(-c2cnc(C(=O)N(C)C3CC3)cn2)n1 [Example I-001] | 100 | 100 | 100 | 100 | 100 | 90 | 100 | 100 | 100 | – | – | – |
| C[C@H](NC(=O)c1cc(OC(F)(F)F)cc(C2CC2)c1)c1ncnn1-c1cnc(C(=O)N(C)C2CC2)cn1 [Example I-003] | 100 | 100 | 100 | 100 | 80 | 90 | – | – | 100 | 100 | – | – |
| C[C@H](NC(=O)c1cc(C(F)(F)F)cc(C(F)(F)F)c1)c1ncnn1-c1cnc(C(=O)N(C)C)cn1 [Example I-005] | 100 | 100 | 100 | 100 | 100 | 100 | – | 100 | 100 | – | – | – |
| CCN(C)C(=O)c1cnc(-n2ncnc2[C@H](C)NC(=O)c2cc(C(F)(F)F)cc(C(F)(F)F)c2)cn1 [Example I-006] | 100 | 100 | 100 | 100 | 100 | 100 | – | 100 | 100 | – | – | – |
| C[C@H](NC(=O)c1cc(C(F)(F)F)cc(C(F)(F)F)c1)c1ncnn1-c1cnc(C(N)=O)cn1 [Example I-010] | 100 | 100 | 100 | 100 | 100 | 90 | 100 | 100 | 100 | – | – | – |
| Cc1nc([C@H](C)NC(=O)c2cc(C(F)(F)F)cc(C(F)(F)F)c2)n(-c2cnc(C(=O)N(C)C)cn2)n1 [Example I-015] | 100 | – | 100 | – | 100 | 90 | 100 | 100 | 100 | – | – | – |
| CCN(C)C(=O)c1cnc(-n2nc(C)nc2[C@H](C)NC(=O)c2cc(C(F)(F)F)cc(C(F)(F)F)c2)cn1 [Example I-016] | 100 | – | 100 | – | 100 | 100 | 100 | 100 | 100 | – | – | – |
| CNC(=O)c1cnc(-n2ncnc2[C@H](C)NC(=O)c2cc(OC(F)(F)F)cc(S(C)(=O)=O)c2)cn1 [Example I-019] | 100 | – | 100 | – | 100 | 90 | 100 | 100 | 100 | 100 | 80 to 100 | 80 to 100 |
| Cc1nc([C@H](C)NC(=O)c2cc(OC(F)(F)F)cc(C3CC3)c2)n(-c2cnc(C(=O)N(C)C)cn2)n1 [Example I-047, 5-(5-{(1S)-1-[3-Cyclopropyl-5-(trifluoromethoxy)benzamido]ethyl}-3-methyl-1H-1,2,4-triazol-1-yl)-N,N-dimethylpyrazine-2-carboxamide] | 100 | – | 100 | – | 100 | 90 | 100 | 100 | 100 | 80 | – | – |
